Test results taken from patent US20230391760A1, “HETEROCYCLIC GLP-1 AGONISTS” (Gasherbrum Bio, Inc., priority 2020, published 2023).

Target: GLP-1 Receptor (Homo sapiens, UniProt P43220)
Experiment: GLP-1R agonist cAMP stimulation assay (HEK293/GLP1R/CRE-LUC cells, cAMP dynamic 2 Kit)
Assay type: cell-based
Conditions: HEK293/CRE-Luc cell line stably expressing the GLP-1 Receptor, 30 min at 37° C.
How it was run: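 cAMP measured by HTRF competition (d2-labelled cAMP with cryptate antibody, 1 h, room temperature, protected from light). Before that, GLP1R/CRE-Luc HEK293 cells (1000/well) were exposed for 30 min at 37 °C to half-log compound dilutions in DPBS containing IBMX 0.5 mM and BSA 0.1%.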

Sequence of GLP-1 Receptor (P43220 24-463, species assumed): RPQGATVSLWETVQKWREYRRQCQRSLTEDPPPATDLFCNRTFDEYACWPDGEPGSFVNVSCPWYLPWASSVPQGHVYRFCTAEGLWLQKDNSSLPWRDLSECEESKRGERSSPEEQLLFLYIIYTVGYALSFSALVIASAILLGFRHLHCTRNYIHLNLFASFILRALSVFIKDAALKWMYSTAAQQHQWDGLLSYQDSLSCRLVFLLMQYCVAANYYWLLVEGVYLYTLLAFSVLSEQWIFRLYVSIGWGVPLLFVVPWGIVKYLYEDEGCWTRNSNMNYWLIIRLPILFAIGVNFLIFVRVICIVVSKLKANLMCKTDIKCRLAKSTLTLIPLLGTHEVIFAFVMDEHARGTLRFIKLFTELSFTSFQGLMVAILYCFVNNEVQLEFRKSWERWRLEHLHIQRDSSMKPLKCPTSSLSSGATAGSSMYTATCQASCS

Which EC50 does the source give for `CC1(c2ccc(Cl)cc2F)Oc2cc(F)cc(C3CCN(Cc4nc5cc(-c6nnc(C(F)(F)F)[nH]6)ncc5n4C[C@@H]4CCO4)CC3)c2O1` (stereo partly drawn) [Compound 441a, 4-[2-(4-chloro-2-fluorophenyl)-6-fluoro-2-methyl-2H-1,3-benzodioxol-4-yl]-1-[(3-{[(2S)-oxetan-2-yl]methyl}-6-[5-(trifluoromethyl)-4H-1,2,4-triazol-3-yl]-3H-imidazo[4,5-c]pyridin-2-yl)methyl]piperidine] here?
Its EC50 is 0.025 nM.

For `COCCC(=O)Nc1ccc2c(c1)nc(CN1CCC(c3cccc(OCc4ccc(Cl)cc4F)n3)CC1)n2C[C@@H]1CCO1` [Compound 107a, (S)—N-(2-((4-(6-((4-chloro-2-fluorobenzyl)oxy)pyridin-2-yl)piperidin-1-yl)methyl)-1-(oxetan-2-ylmethyl)-1H-benzo[d]imidazol-5-yl)-3-methoxypropanamide], which EC50 is on record?
The EC50 was 0.337 nM.

How did the EC50 turn out when `O=C(Nc1ccc2c(c1)nc(CN1CCC(c3cccc(OCc4ccc(Cl)cc4F)n3)CC1)n2C[C@@H]1CCO1)c1ccncc1` [Compound 171a, N-{2-[(4-{6-[(4-chloro-2-fluorophenyl)methoxy]pyridin-2-yl}piperidin-1-yl)methyl]-1-{[(2S)-oxetan-2-yl]methyl}-1H-1,3-benzodiazol-5-yl}pyridine-4-carboxamide] was run?
Its EC50 is 0.27 nM.

How did the EC50 turn out when `Fc1cc(Cl)ccc1COc1cc(N2CCN(Cc3nc4cc(-c5nnc(C(F)(F)F)[nH]5)ncc4n3C[C@@H]3CCO3)CC2)ccc1F` [Compound 456a, 1-{3-[(4-chloro-2-fluorophenyl)methoxy]-4-fluorophenyl}-4-[(3-{[(2S)-oxetan-2-yl]methyl}-6-[5-(trifluoromethyl)-4H-1,2,4-triazol-3-yl]-3H-imidazo[4,5-c]pyridin-2-yl)methyl]piperazine] was run?
The EC50 was 0.085 nM.

For `N#Cc1ccc(COc2nc(C3CCN(Cc4nc5cc(-c6nnc(C(F)(F)F)[nH]6)ncc5n4C[C@@H]4CCO4)CC3)ccc2F)c(F)c1` [Compound 485a, 3-fluoro-4-{[(3-fluoro-6-{1-[(3-{[(2S)-oxetan-2-yl]methyl}-6-[5-(trifluoromethyl)-4H-1,2,4-triazol-3-yl]-3H-imidazo[4,5-c]pyridin-2-yl)methyl]piperidin-4-yl}pyridin-2-yl)oxy]methyl}benzonitrile], which EC50 is on record?
The EC50 was 0.0096 nM.

Which EC50 does the source give for `O=C(Nc1ccc2c(c1)nc(CN1CCC(c3cccc(OCc4ccc(Cl)cc4F)n3)CC1)n2C[C@@H]1CCO1)c1ccc(C2CC2)nc1` [Compound 176a, N-{2-[(4-{6-[(4-chloro-2-fluorophenyl)methoxy]pyridin-2-yl}piperidin-1-yl)methyl]-1-{[(2S)-oxetan-2-yl]methyl}-1H-1,3-benzodiazol-5-yl}-6-cyclopropylpyridine-3-carboxamide] here?
Its EC50 is 8.6 nM.

With `CC1(c2ccc(Cl)cc2F)Oc2c(F)ccc(C3CCN(Cc4nc5cc(-c6nnc(C(F)(F)F)[nH]6)ncc5n4C[C@@H]4CCO4)CC3)c2O1` (stereo partly drawn) [Compound 459a, 4-[2-(4-chloro-2-fluorophenyl)-7-fluoro-2-methyl-2H-1,3-benzodioxol-4-yl]-1-[(3-{[(2S)-oxetan-2-yl]methyl}-6-[5-(trifluoromethyl)-4H-1,2,4-triazol-3-yl]-3H-imidazo[4,5-c]pyridin-2-yl)methyl]piperidine] as the compound, how does the EC50 read?
The EC50 was 0.0088 nM.

`Cc1ccc(COc2cccc(C3CCN(Cc4nc5cc(-c6nnc(C(F)(F)F)[nH]6)ncc5n4C[C@@H]4CCO4)CC3)n2)c(F)c1` [Compound 496a, 2-[(2-fluoro-4-methylphenyl)methoxy]-6-{1-[(3-{[(2S)-oxetan-2-yl]methyl}-6-[5-(trifluoromethyl)-4H-1,2,4-triazol-3-yl]-3H-imidazo[4,5-c]pyridin-2-yl)methyl]piperidin-4-yl}pyridine] was tested. Which EC50 did it give?
The EC50 was 0.017 nM.

How did the EC50 turn out when `C[C@]1(c2ccc(Cl)cc2F)Oc2cccc(C3CCN(Cc4nc5cc(-c6nnc(C(F)(F)F)[nH]6)nnc5n4C[C@@H]4CCO4)CC3)c2O1` [Compound 359a, 4-[(2S)-2-(4-chloro-2-fluorophenyl)-2-methyl-2H-1,3-benzodioxol-4-yl]-1-[(7-{[(2S)-oxetan-2-yl]methyl}-3-[5-(trifluoromethyl)-4H-1,2,4-triazol-3-yl]-7H-imidazo[4,5-c]pyridazin-6-yl)methyl]piperidine] was run?
The EC50 was 0.014 nM.

Which EC50 does the source give for `O=c1[nH]c(-c2cnc3c(c2)nc(CN2CC=C(c4cccc(OCc5ccc(Cl)cc5F)n4)CC2)n3C[C@@H]2CCO2)no1` [Compound 324a, 3-[2-({6-[(4-chloro-2-fluorophenyl)methoxy]-1′,2′,3′,6′-tetrahydro-[2,4′-bipyridin]-1′-yl}methyl)-3-{[(2S)-oxetan-2-yl]methyl}-3H-imidazo[4,5-b]pyridin-6-yl]-4,5-dihydro-1,2,4-oxadiazol-5-one] here?
The EC50 was 0.11 nM.

`CC1(c2ccc(Cl)cc2F)Oc2cccc(C3CCN(Cc4nc5cc(NC(=O)c6cccnc6)ccc5n4C[C@@H]4CCO4)CC3)c2O1` (stereo partly drawn) [Compound 235a, N-(2-((4-(2-(4-chloro-2-fluorophenyl)-2-methylbenzo[d][1,3]dioxol-4-yl)piperidin-1-yl)methyl)-1-(((S)-oxetan-2-yl)methyl)-1H-benzo[d]imidazol-5-yl)nicotinamide] was tested. Which EC50 did it give?
Its EC50 is 0.062 nM.

For `CC1(c2ccc(Cl)cn2)Oc2c(F)ccc(C3CCN(Cc4nc5cc(-c6nnc(C(F)(F)F)[nH]6)nnc5n4C[C@@H]4CCO4)CC3)c2O1` (stereo partly drawn) [Compound 524a, 5-chloro-2-[4-fluoro-2-methyl-7-{1-[(7-{[(2S)-oxetan-2-yl]methyl}-3-[5-(trifluoromethyl)-4H-1,2,4-triazol-3-yl]-7H-imidazo[4,5-c]pyridazin-6-yl)methyl]piperidin-4-yl}-2H-1,3-benzodioxol-2-yl]pyridine], which EC50 is on record?
The EC50 was 0.45 nM.

With `Cc1cnc(C(=O)Nc2ccc3c(c2)nc(CN2CCC(c4cccc(OCc5ccc(Cl)cc5F)n4)CC2)n3C[C@@H]2CCO2)c(C)c1` [Compound 184a, N-{2-[(4-{6-[(4-chloro-2-fluorophenyl)methoxy]pyridin-2-yl}piperidin-1-yl)methyl]-1-{[(2S)-oxetan-2-yl]methyl}-1H-1,3-benzodiazol-5-yl}-3,5-dimethylpyridine-2-carboxamide] as the compound, how does the EC50 read?
The EC50 was 2 nM.

For `O=c1[nH]c(-c2cc3nc(CN4CCC(c5ccnc(OCc6ccc(Cl)cc6F)n5)CC4)n(C[C@@H]4CCO4)c3cn2)no1` [Compound 460a, 3-{2-[(4-{2-[(4-chloro-2-fluorophenyl)methoxy]pyrimidin-4-yl}piperidin-1-yl)methyl]-3-{[(2S)-oxetan-2-yl]methyl}-3H-imidazo[4,5-c]pyridin-6-yl}-4,5-dihydro-1,2,4-oxadiazol-5-one], which EC50 is on record?
Its EC50 is 0.15 nM.

Which EC50 does the source give for `Fc1cc(Cl)ccc1COc1nc(N2CCN(Cc3nc4cc(-c5nnc(C(F)(F)F)[nH]5)ncc4n3C[C@@H]3CCO3)CC2)ncc1F` [Compound 490a, 4-[(4-chloro-2-fluorophenyl)methoxy]-5-fluoro-2-{4-[(3-{[(2S)-oxetan-2-yl]methyl}-6-[5-(trifluoromethyl)-4H-1,2,4-triazol-3-yl]-3H-imidazo[4,5-c]pyridin-2-yl)methyl]piperazin-1-yl}pyrimidine] here?
Its EC50 is 0.086 nM.

How did the EC50 turn out when `C[C@]1(c2ccc(Cl)cc2F)Oc2cccc(C3CCN(Cc4nc5cc(-c6nnc(C(F)F)[nH]6)ncc5n4C[C@@H]4CCO4)CC3)c2O1` [Compound 360a, 4-[(2S)-2-(4-chloro-2-fluorophenyl)-2-methyl-2H-1,3-benzodioxol-4-yl]-1-({6-[5-(difluoromethyl)-4H-1,2,4-triazol-3-yl]-3-{[(2S)-oxetan-2-yl]methyl}-3H-imidazo[4,5-c]pyridin-2-yl}methyl)piperidine] was run?
The EC50 was 0.0092 nM.

With `CC1(c2ccc(Cl)cc2F)Oc2cccc(C3CCN(Cc4nc5cc(-c6nnc(C(F)(F)F)[nH]6)cnc5n4C[C@@H]4CCO4)CC3)c2O1` (mixture of isomers) [Compound 224a, 4-[2-(4-chloro-2-fluorophenyl)-2-methyl-2H-1,3-benzodioxol-4-yl]-1-[(3-{[(2S)-oxetan-2-yl]methyl}-6-[5-(trifluoromethyl)-4H-1,2,4-triazol-3-yl]-3H-imidazo[4,5-b]pyridin-2-yl)methyl]piperidine] as the compound, how does the EC50 read?
The EC50 was 0.018 nM.

Which EC50 does the source give for `C[C@]1(c2ccc(Cl)cc2F)Oc2cccc(C3CCN(Cc4nc5cc(-c6noc(=O)[nH]6)cnc5n4C[C@@H]4CCO4)CC3)c2O1` [Compound 262, 3-[2-({4-[(2S)-2-(4-chloro-2-fluorophenyl)-2-methyl-2H-1,3-benzodioxol-4-yl]piperidin-1-yl}methyl)-3-{[(2S)-oxetan-2-yl]methyl}-3H-imidazo[4,5-b]pyridin-6-yl]-4,5-dihydro-1,2,4-oxadiazol-5-one] here?
Its EC50 is 0.071 nM.

Which EC50 does the source give for `C[C@]1(c2ccc(Cl)cn2)Oc2cccc(C3CCN(Cc4nc5cc(-c6nnc(C(F)(F)F)[nH]6)nnc5n4C[C@@H]4CCO4)CC3)c2O1` [Compound 462a, 5-chloro-2-[(2S)-2-methyl-4-{1-[(7-{[(2S)-oxetan-2-yl]methyl}-3-[5-(trifluoromethyl)-4H-1,2,4-triazol-3-yl]-7H-imidazo[4,5-c]pyridazin-6-yl)methyl]piperidin-4-yl}-2H-1,3-benzodioxol-2-yl]pyridine] here?
The EC50 was 0.045 nM.

`O=C(O)COc1ccc2c(c1)nc(CN1CCC(c3cccc(OCc4ccc(Cl)cc4F)n3)CC1)n2C[C@@H]1CCO1` [Compound 109a, (S)-2-((2-((4-(6-((4-chloro-2-fluorobenzyl)oxy)pyridin-2-yl)piperidin-1-yl)methyl)-1-(oxetan-2-ylmethyl)-1H-benzo[d]imidazol-5-yl)oxy)acetic acid] was tested. Which EC50 did it give?
Its EC50 is 13.2 nM.

With `O=C(Nc1ccc2c(c1)nc(CN1CCC(c3cccc(OCc4ccc(Cl)cc4F)n3)CC1)n2C[C@@H]1CCO1)c1cncnc1` [Compound 200a, N-{2-[(4-{6-[(4-chloro-2-fluorophenyl)methoxy]pyridin-2-yl}piperidin-1-yl)methyl]-1-{[(2S)-oxetan-2-yl]methyl}-1H-1,3-benzodiazol-5-yl}pyrimidine-5-carboxamide] as the compound, how does the EC50 read?
Its EC50 is 0.35 nM.

With `CC1(c2ccc(Cl)cc2F)Oc2cccc(C3CCN(Cc4nc5cc(-c6nnc(C(F)F)[nH]6)ccc5n4C[C@@H]4CCO4)CC3)c2O1` (stereo partly drawn) [Compound 227a, 2-({4-[2-(4-chloro-2-fluorophenyl)-2-methyl-2H-1,3-benzodioxol-4-yl]piperidin-1-yl}methyl)-5-[5-(difluoromethyl)-4H-1,2,4-triazol-3-yl]-1-{[(2S)-oxetan-2-yl]methyl}-1H-1,3-benzodiazole] as the compound, how does the EC50 read?
The EC50 was 0.094 nM.
